One assay concerns HT-29 cells. Briefly: Inhibition of TNF-α-induced necroptosis of HT-29 cells (SRB method). The assay is classed as cell-based, human. The conditions noted are these: Homo sapiens, HT-29, TNF-α 20 ng/mL + BV6 2 µM + Z-VAD-FMK 20 µM, 18 h. The source says:
Example 57: Inhibition of TNF-α-Induced Necroptosis of HT-29 Cells by Compounds
• 1. Experimental reagents: McCOY's 5A culture medium, fetal bovine serum, penicillin-streptomycin, trypsin, PBS, TNF-α (MCE, HY-P7058), BV6 (MCE, HY-16701), Z-VAD-FMK (MCE, HY-16658B), SRB kit (Shanghai BestBio Biotechnology Co., Ltd., BB-4208-500T). • 2. Experimental instruments: medical low-temperature freezer (Thermo Fisher scientific, 902-ULTS), electrically heated thermostatic water bath (Shanghai Bluepard Instruments Co., Ltd., CD-420), low-speed centrifuge (ANHUI USTC Zonkia Scientific Instruments Co., Ltd, SC-3616), carbon dioxide incubator (Shanghai Bluepard Instruments Co., Ltd., BPN-150CH(UV)), inverted microscope (Olympus, CKX53), multi-functional microplate reader (Thermo Tecan, SPARK), class-II biosafety cabinet (AIRTECH, BSC-1304IIA2), and desktop cell counter (Thermo Fisher Scientific, Countess II). • 3. Cell culturing: HT-29 cells (human colon cancer cells) were cultured in a McCOY's 5A culture solution containing 10% fetal bovine serum and 1% penicillin-streptomycin solution in a 5% CO 2 at 37 °C and a saturated humidity, and culture medium changes and cell passaging were performed 3-4 times a week. • 4. […] The culture medium, trypsin, etc., were taken out from the freezer and transferred to the water bath for pre-heating. An appropriate amount of these substances was then taken for use. • (2) The old culture medium in the flask was aspirated using a sterile pipette and discarded, and the cells were washed 3 times with PBS. 1 mL of trypsin (25 cm^2 cell culture flask) was added into the flask, and the flask was gently shaken to allow the trypsin to cover all the cell surfaces. Digestion was performed in an incubator at 37 °C. After 2 min of digestion, the flask was placed under a microscope for observation. […] The mixture was gently pipetted using a pipette to homogenize the cells and thus prepare a single-cell suspension, and the cells were counted. • (5) The cells were diluted to 3 × 10^5/mL and seeded into a 96-well plate at 100 µL/well, such that there were 3 × 10^4 cells per well in the 96-well plate. The cells were incubated in a 5% CO2 incubator at 37 °C and a saturated humidity for 24 h, followed by the addition of compounds. • 4.2 Dilution and addition of compounds: • (1) TNF-α was dissolved in PBS to obtain a 100 µg/mL stock solution and aliquoted; Z-VAD-FMK was dissolved in DMSO to obtain a 10 mM stock solution and aliquoted; BV6 was dissolved in DMSO to obtain a 10 mM stock solution and aliquoted; GSK2982772 was dissolved in DMSO to obtain a 10 mM stock solution and aliquoted. One aliquot of each stock solution was stored at -20 °C for immediate use, while the remaining aliquots were stored at - 80 °C and used within their shelf life. • (2) McCOY's 5A culture solution containing TNF-α, BV6, and Z-VAD-FMK was prepared. For the positive control group and the test compound groups, the McCOY's 5A culture solution was added at 90 µL/well, and 10 µL of the culture medium containing the test compound was also added, thus making the final concentrations of TNF-α, BV6, and Z-VAD-FMK be 20 ng/mL, 2 µM, and 20 µM, respectively. For the DMSO (5‰) control group, 90 µL of the McCOY's 5A complete culture solution was added, and then 10 µL of DMSO was added, thus making the final concentration 5‰. • (3) Each target compound was three-fold diluted with a culture medium to 8 concentration gradients, with each concentration set in duplicate (10 µL/well). The final concentrations of each target compound were 1000.00/333.33/111.11/37.04/12.35/4.12/1.37/0.46 nM. • (4) The 96-well plate cultured for 24 h was taken out from the incubator, and the culture medium in the 96-well plate was carefully aspirated and discarded. A positive control group, test compound groups, and a DMSO (5‰) control group were set, and 10 µL of the corresponding compound was added to each group. […]
(In general: Sulforhodamine B stains cellular protein and so reports cell mass.)

A further assay concerns U937 cells. Briefly: Inhibition of TNF-α-induced necroptosis of U937 cells (CCK-8 assay). The conditions noted are these: Homo sapiens, U-937, TNF-α 20 ng/mL + BV6 2 µM + Z-VAD-FMK 20 µM, 18 h. The format is cell-based, human. The source says:
Example 56: Inhibition of TNF-α-Induced Necroptosis of U937 Cells by Compounds
• 1. Experimental reagents: RPMI-1640 culture medium, fetal bovine serum, penicillin-streptomycin, TNF-α (MCE, HY-P7058), BV6 (MCE, HY-16701), Z-VAD-FMK (MCE, HY-16658B), and CCK-8 (Dalian Meilun Biotech Co., Ltd., MA0218). • 2. Experimental instruments: medical low-temperature freezer (Thermo Fisher scientific, 902-ULTS), electrically heated thermostatic water bath (Shanghai Bluepard Instruments Co., Ltd., CD-420), low-speed centrifuge (ANHUI USTC Zonkia Scientific Instruments Co., Ltd, SC-3616), carbon dioxide incubator (Shanghai Bluepard Instruments Co., Ltd., BPN-150CH(UV)), inverted microscope (Olympus, CKX53), multi-functional microplate reader (Thermo Tecan, SPARK), class-II biosafety cabinet (AIRTECH, BSC-1304IIA2), and desktop cell counter (Thermo Fisher Scientific, Countess II). • 3. Cell culturing: U937 cells (human histiocytic lymphoma cells) were cultured in an RPMI-1640 culture solution containing 10% fetal bovine serum and 1% penicillin-streptomycin solution in a 5% CO2 incubator at 37 °C and a saturated humidity. The cell culture flask was vertically placed in the incubator. A T25 culture flask was used as an example, the culture solution in the flask was 6-8 mL, and culture medium changes and cell passaging were performed 3-4 times a week. • 4. […] The culture medium was taken out from the freezer and transferred to the water bath for pre-heating. An appropriate amount of culture medium was then taken for use. • (2) The cell suspension was transferred to a 15 mL sterile centrifuge tube and centrifuged at 850 rpm for 4 min to collect U937 cells. • (3) The supernatant was carefully discarded, and an appropriate amount of culture medium was added. The mixture was gently pipetted using a pipette to homogenize the cells and thus prepare a single-cell suspension, and the cells were counted. • (4) The cells were diluted to 4 × 10^5/mL and seeded into a 96-well plate at 90 µL/well, such that the cell density in the 96-well plate was 3.6 × 10 ^4 cells/well. The cells were incubated in a 5% CO 2 incubator at 37 °C and a saturated humidity for 6 h, followed by the addition of compounds. • 4.2 Dilution and addition of compounds: • (1) TNF-α was dissolved in PBS to obtain a 100 µg/mL stock solution and aliquoted; Z-VAD-FMK was dissolved in DMSO to obtain a 10 mM stock solution and aliquoted; BV6 was dissolved in DMSO to obtain a 10 mM stock solution and aliquoted; GSK2982772 was dissolved in DMSO to obtain a 10 mM stock solution and aliquoted. One aliquot of each stock solution was stored at -20 °C for immediate use, while the remaining aliquots were stored at - 80 °C and used within their shelf life. • (2) RPMI-1640 culture medium containing TNF-α, BV6, and Z-VAD-FMK was prepared (5 µL/per well), such that the final concentrations of TNF-α, BV6, and Z-VAD-FMK were 20 ng/mL, 2 µM, and 20 µM, respectively. • (3) Each target compound was three-fold diluted with a culture medium to 8 concentration gradients, with each concentration set in duplicate (5 µL/well). The final concentrations of each target compound were 1000.00/333.33/111.11/37.04/12.35/4.12/1.37/0.46 nM. • (4) The 96-well plate containing 90 µL of cell suspension was taken out from an incubator, and a positive control group, test compound groups, and a DMSO (5‰) control group were set. 5 µL of RPMI-1640 culture solution containing TNF-α, BV6, and Z-VAD-FMK and 5 µL of culture solution containing the test compound were added to the positive control group and the test compound groups. After compound addition, the mixtures were cultured for 18 h, followed by the CCK-8 assay. • (5) The 96-well plate was taken out, and the CCK-8 reagent was carefully added at 10 µL/well. The mixtures were incubated at 37 °C for 2-4 h, and the absorbance value was measured at a wavelength of 450 nm. • 5. Evaluation of inhibitory activity of compounds on TNF-α-induced necroptosis of U937 [formula] […]

In general, EC50 refers to the concentration needed to bring the measured effect to its halfway point.

The structures appear in SMILES notation.

Turning to `O=C(NC1CCc2cc(C#CC3CC3)cc3c2N(CC3)C1=O)c1nnc(Cc2ccccc2)[nH]1` (stereo not shown) [Compound I-1, 5-benzyl-N-(9-(cyclopropylethynyl)-4-oxo-1,2,3,4,6,7-hexahydroazepino[3,2,1-hi]indol-3-yl)-4H-1,2,4-triazole-3-carboxamide], the EC50 in the assay with HT-29 cells is 100 to 200 nM; with U937 cells, greater than 200 nM.

As to `O=C(NC1CCc2cc(C#Cc3ccccn3)cc3c2N(CC3)C1=O)c1nnc(Cc2ccccc2)[nH]1` (stereo not shown) [Compound I-2, 5-benzyl-N-(4-oxo-9-(pyridin-2-ylethynyl)-1,2,3,4,6,7-hexahydroazepino[3,2,1-hi]indol-3-yl)-4H-1,2,4-triazole-3-carboxamide], the concentration giving a half-maximal response (EC50) in the assay with HT-29 cells was in the range of 10 to 100 nM; with U937 cells it was 100 to 200 nM.

Take `O=C(NC1CCc2cc(C#Cc3cccnc3)cc3c2N(CC3)C1=O)c1nnc(Cc2ccccc2)[nH]1` (stereo not shown) [Compound I-3, 5-benzyl-N-(4-oxo-9-(pyridin-3-ylethynyl)-1,2,3,4,6,7-hexahydroazepino[3,2,1-hi]indol-3-yl)-4H-1,2,4-triazole-3-carboxamide]: the concentration for a half-maximal effect (EC50) with HT-29 cells lay within 10 to 100 nM; with U937 cells it was 100 to 200 nM.

Take `O=C(NC1CCc2cc(C#Cc3ccncc3)cc3c2N(CC3)C1=O)c1nnc(Cc2ccccc2)[nH]1` (stereo not shown) [Compound I-4, 5-benzyl-N-(4-oxo-9-(pyridin-4-ylethynyl)-1,2,3,4,6,7-hexahydroazepino[3,2,1-hi]indol-3-yl)-4H-1,2,4-triazole-3-carboxamide]: the concentration giving a half-maximal response (EC50) in the assay on HT-29 cells and with U937 cells was 100 to 200 nM in each case.

Turning to `Cn1cc(C#Cc2cc3c4c(c2)CCN4C(=O)C(NC(=O)c2nnc(Cc4ccccc4)[nH]2)CC3)cn1` (stereo not shown) [Compound I-5, 5-benzyl-N-(9-((1-methyl-1H-pyrazol-4-yl)ethynyl)-4-oxo-1,2,3,4,6,7-hexahydroazepino[3,2,1-hi]indol-3-yl)-4H-1,2,4-triazole-3-carboxamide], the EC50 lay within 100 to 200 nM in the assay on HT-29 cells and 10 to 100 nM in the assay on U937 cells.

As to `O=C(NC1CCc2cc(C#CC3CCOCC3)cc3c2N(CC3)C1=O)c1nnc(Cc2ccccc2)[nH]1` (stereo not shown) [Compound I-6, 5-benzyl-N-(4-oxo-9-((tetrahydro-2H-pyran-4-yl)ethynyl)-1,2,3,4,6,7-hexahydroazepino[3,2,1-hi]indol-3-yl)-4H-1,2,4-triazole-3-carboxamide], the EC50 in the assay with HT-29 cells and in the assay with U937 cells was 10 to 100 nM in each case.

On to `CC(C)(O)C#Cc1cc2c3c(c1)CCN3C(=O)C(NC(=O)c1nnc(Cc3ccccc3)[nH]1)CC2` (stereo not shown) [Compound I-7, 5-benzyl-N-(9-(3-hydroxy-3-methylbut-1-yn-1-yl)-4-oxo-1,2,3,4,6,7-hexahydroazepino[3,2,1-hi]indol-3-yl)-4H-1,2,4-triazole-3-carboxamide], for which the half-maximal effective concentration (EC50) is greater than 200 nM in the assay on HT-29 cells and 100 to 200 nM in the assay with U937 cells.

In the case of `O=C(NC1CCc2cc(C#Cc3ccncc3)cc3c2N(CC3)C1=O)c1nnc(Cc2ccc(F)cc2)[nH]1` (stereo not shown) [Compound I-8, 5-(4-fluorobenzyl)-N-(4-oxo-9-(pyridin-4-ylethynyl)-1,2,3,4,6,7-hexahydroazepino[3,2,1-hi]indol-3-yl)-4H-1,2,4-triazole-3-carboxamide], the EC50 in the assay with HT-29 cells and in the assay with U937 cells was greater than 200 nM throughout.

Regarding `O=C(NC1CCc2cc(C#Cc3ccncc3)cc3c2N(CC3)C1=O)c1nnc(Cc2ccc(Cl)cc2)[nH]1` (stereo not shown) [Compound I-9, 5-(4-chlorobenzyl)-N-(4-oxo-9-(pyridin-4-ylethynyl)-1,2,3,4,6,7-hexahydroazepino[3,2,1-hi]indol-3-yl)-4H-1,2,4-triazole-3-carboxamide], the 50% effective concentration (EC50) in the assay on HT-29 cells and with U937 cells was greater than 200 nM in each case.

`O=C(NC1CCc2cc(C#Cc3ccncc3)cc3c2N(CC3)C1=O)c1nnc(Cc2ccccc2Cl)[nH]1` (stereo not shown) [Compound I-10, 5-(2-chlorobenzyl)-N-(4-oxo-9-(pyridin-4-ylethynyl)-1,2,3,4,6,7-hexahydroazepino[3,2,1-hi]indol-3-yl)-4H-1,2,4-triazole-3-carboxamide]: the half-maximal effective concentration (EC50) with HT-29 cells was greater than 200 nM; with U937 cells, 100 to 200 nM.

For the compound `O=C(NC1CCc2cc(C#Cc3ccncc3)cc3c2N(CC3)C1=O)c1nnc(Cc2ccccc2F)[nH]1` (stereo not shown) [Compound I-11, 5-(2-fluorobenzyl)-N-(4-oxo-9-(pyridin-4-ylethynyl)-1,2,3,4,6,7-hexahydroazepino[3,2,1-hi]indol-3-yl)-4H-1,2,4-triazole-3-carboxamide], the half-maximal effective concentration (EC50) in the assay on HT-29 cells and with U937 cells was 100 to 200 nM throughout.

The values above are taken from patent EP4772510A2, “BENZAZEPINONE COMPOUND AND USE THEREOF” (HANGZHOU BIO-SINCERITY PHARMA-TECHCO., LTD., priority 2023, dated 2025).
